Here are results for 24 compounds from patent US10202389B2, “Pyrazolopyrimidinyl inhibitors of ubiquitin-activating enzyme” (Millennium Pharmaceuticals, Inc., priority 2012, dated 2019).

In this test the target is recombinant human UAE (Homo sapiens (Human), UniProt P22314). The experiment in a line: Ubiquitin Activating Enzyme (UAE) HTRF Assay. The following applies: read-out: % inhibition @0.111 μM.
recombinant human UAE, sequence (P22314 whole entry): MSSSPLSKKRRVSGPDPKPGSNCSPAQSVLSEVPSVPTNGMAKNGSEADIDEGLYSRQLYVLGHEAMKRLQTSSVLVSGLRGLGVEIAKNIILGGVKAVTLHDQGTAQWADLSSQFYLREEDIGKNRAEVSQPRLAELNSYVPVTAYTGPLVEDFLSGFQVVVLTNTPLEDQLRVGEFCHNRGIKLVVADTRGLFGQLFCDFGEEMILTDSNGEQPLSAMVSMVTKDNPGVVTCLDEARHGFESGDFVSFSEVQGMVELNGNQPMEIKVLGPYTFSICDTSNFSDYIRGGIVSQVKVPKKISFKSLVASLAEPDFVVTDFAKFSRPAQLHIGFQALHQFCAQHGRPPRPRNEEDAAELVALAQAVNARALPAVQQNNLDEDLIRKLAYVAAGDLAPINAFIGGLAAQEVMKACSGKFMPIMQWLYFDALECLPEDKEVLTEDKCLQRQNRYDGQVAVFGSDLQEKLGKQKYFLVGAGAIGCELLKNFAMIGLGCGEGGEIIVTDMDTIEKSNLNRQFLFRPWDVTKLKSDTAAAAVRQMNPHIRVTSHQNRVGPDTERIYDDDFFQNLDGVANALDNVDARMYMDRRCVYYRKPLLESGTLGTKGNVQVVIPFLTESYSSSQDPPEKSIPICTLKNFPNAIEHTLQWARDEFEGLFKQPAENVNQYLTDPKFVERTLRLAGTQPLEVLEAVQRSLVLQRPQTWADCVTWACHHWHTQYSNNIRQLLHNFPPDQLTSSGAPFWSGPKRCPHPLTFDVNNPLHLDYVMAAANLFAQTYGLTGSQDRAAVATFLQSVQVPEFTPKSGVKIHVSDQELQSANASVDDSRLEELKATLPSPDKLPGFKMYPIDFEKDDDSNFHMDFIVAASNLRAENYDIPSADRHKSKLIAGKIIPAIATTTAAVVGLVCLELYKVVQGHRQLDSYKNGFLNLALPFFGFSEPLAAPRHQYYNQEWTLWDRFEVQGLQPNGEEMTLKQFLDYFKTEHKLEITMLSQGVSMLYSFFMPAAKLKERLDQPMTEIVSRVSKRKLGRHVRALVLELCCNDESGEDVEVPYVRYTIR
Procedure: After incubation for 120 minutes, quantification of the FRET is performed on the Pherostar (BMG).
For compounds whose values are marked with an asterisk (*), mouse UAE was used. For all other compounds, human UAE was used.
Turning to `NS(=O)(=O)OC[C@H]1C[C@@H](Nc2ccnc3cc(-c4cccc(-c5ccccc5)c4)nn23)[C@H](O)[C@@H]1O` (relative stereo) [Compound I-003, (rac)((1R,2R,3S,4R)-4-(2-(biphenyl-3-yl)pyrazolo[1,5-a]pyrimidin-7-ylamino)-2,3-dihydroxycyclopentyl)methyl rel-sulfamate], the inhibition at 0.111 µM worked out at 100%.
For `Cc1cc(N[C@@H]2C[C@H](COS(N)(=O)=O)[C@@H](O)[C@H]2O)n2nc(-c3ccccc3)cc2n1` (relative stereo) [Compound I-004, (rac)-{(1R,2R,3S,4R)-2,3-dihydroxy-4-[(5-methyl-2-phenylpyrazolo[1,5-a]pyrimidin-7-yl)amino]cyclopentyl}methyl rel-sulfamate], the inhibition at 0.111 µM was 31%.
On to `NS(=O)(=O)OC[C@H]1C[C@@H](Nc2cc(Cl)nc3cc(-c4ccccc4)nn23)[C@H](O)[C@@H]1O` (relative stereo) [Compound I-006, (rac)-{(1R,2R,3S,4R)-4-[(5-chloro-2-phenylpyrazolo[1,5-a]pyrimidin-7-yl)amino]-2,3-dihydroxycyclopentyl}methyl rel-sulfamate], for which the inhibition at 0.111 µM was 23%.
For the compound `NS(=O)(=O)OC[C@H]1C[C@@H](Nc2ccnc3cc(-c4cccc(C(F)(F)F)c4)nn23)[C@H](O)[C@@H]1O` (relative stereo) [Compound I-007, (rac)-((1R,2R,3S,4R)-2,3-Dihydroxy-4-((2-(3-(trifluoromethyl)phenyl)pyrazolo[1,5-a]pyrimidin-7-yl)amino)cyclopentyl)methyl rel-sulfamate], the inhibition at 0.111 µM is 99%.
With `NS(=O)(=O)OC[C@H]1C[C@@H](Nc2cc(Cl)nc3cc(-c4ccc(Br)cc4)nn23)[C@H](O)[C@@H]1O` (relative stereo) [Compound I-008, (rac)-((1R,2R,3S,4R)-4-(2-(4-bromophenyl)-5-chloropyrazolo[1,5-a]pyrimidin-7-ylamino)-2,3-dihydroxycyclopentyl)methyl rel-sulfamate], the inhibition at 0.111 µM came to 28%.
Regarding `NS(=O)(=O)OC[C@H]1C[C@@H](Nc2cc(Cl)nc3cc(-c4cccc5ccccc45)nn23)[C@H](O)[C@@H]1O` (relative stereo) [Compound I-009, (rac)-((1R,2R,3S,4R)-4-{[5-chloro-2-(1-naphthyl)pyrazolo[1,5-a]pyrimidin-7-yl]amino}-2,3-dihydroxycyclopentyl)methyl rel-sulfamate], the inhibition at 0.111 µM is 42%.
Turning to `NS(=O)(=O)OC[C@H]1C[C@@H](Nc2ccnc3cc(-c4cccc5c4oc4ccccc45)nn23)[C@H](O)[C@@H]1O` (relative stereo) [Compound I-010, (rac)-((1R,2R,3S,4R)-4-(2-(dibenzo[b,d]furan-4-yl)pyrazolo[1,5-a]pyrimidin-7-ylamino)-2,3-dihydroxycyclopentyl)methyl rel-sulfamate], the inhibition at 0.111 µM amounted to 100%.
As to `NS(=O)(=O)OC[C@H]1C[C@@H](Nc2ccnc3cc(-c4ccc(Cl)cc4Cl)nn23)[C@H](O)[C@@H]1O` (relative stereo) [Compound I-013, (rac)-[(1R,2R,3S,4R)-4-{[2-(2,4-dichlorophenyl)pyrazolo[1,5-a]pyrimidin-7-yl]amino}-2,3-dihydroxycyclopentyl]methyl rel-sulfamate], the inhibition at 0.111 µM amounted to 84%.
As for `COc1ccc(-c2cc3nc(Cl)cc(N[C@@H]4C[C@H](COS(N)(=O)=O)[C@@H](O)[C@H]4O)n3n2)cc1` (relative stereo) [Compound I-014, (rac)-[(1R,2R,3S,4R)-4-{[5-chloro-2-(4-methoxyphenyl)pyrazolo[1,5-a]pyrimidin-7-yl]amino}-2,3-dihydroxycyclopentyl]methyl rel-sulfamate], the inhibition at 0.111 µM was 30%.
Consider `CC(C)(C)c1cccc(-c2cc3nccc(N[C@@H]4C[C@H](COS(N)(=O)=O)[C@@H](O)[C@H]4O)n3n2)c1` (relative stereo) [Compound I-015, (rac)-((1R,2R,3S,4R)-4-((2-(3-(tert-Butyl)phenyl)pyrazolo[1,5-a]pyrimidin-7-yl)amino)-2,3-dihydroxycyclopentyl)methyl rel-sulfamate], for which the inhibition at 0.111 µM was 100%.
Turning to `NS(=O)(=O)OC[C@H]1C[C@@H](Nc2ccnc3cc(-c4ccc5ccccc5c4)nn23)[C@H](O)[C@@H]1O` (relative stereo) [Compound I-016, (rac)-((1R,2R,3S,4R)-2,3-dihydroxy-4-(2-(naphthalen-2-yl)pyrazolo[1,5-a]pyrimidin-7-ylamino)cyclopentyl)methyl rel-sulfamate], the inhibition at 0.111 µM was 99%.
With `NS(=O)(=O)OC[C@H]1C[C@@H](Nc2ccnc3cc(-c4cccc5cccnc45)nn23)[C@H](O)[C@@H]1O` (relative stereo) [Compound I-017, (rac)-((1R,2R,3S,4R)-2,3-Dihydroxy-4-((2-(quinolin-8-yl)pyrazolo[1,5-a]pyrimidin-7-yl)amino)cyclopentyl)methyl rel-sulfamate], the inhibition at 0.111 µM was found to be 100%.
Next, `NS(=O)(=O)OC[C@H]1C[C@@H](Nc2ccnc3cc(-c4cncc5ccccc45)nn23)[C@H](O)[C@@H]1O` (relative stereo) [Compound I-018, (rac)-((1R,2R,3S,4R)-2,3-dihydroxy-4-(2-(isoquinolin-4-yl)pyrazolo[1,5-a]pyrimidin-7-ylamino)cyclopentyl)methyl rel-sulfamate]: 100%.
As for `NS(=O)(=O)OC[C@H]1C[C@@H](Nc2ccnc3cc(-c4ccc5oc6ccccc6c5c4)nn23)[C@H](O)[C@@H]1O` (relative stereo) [Compound I-019, (rac)-((1R,2R,3S,4R)-4-(2-(dibenzo[b,d]furan-2-yl)pyrazolo[1,5-a]pyrimidin-7-ylamino)-2,3-dihydroxycyclopentyl)methyl rel-sulfamate], the inhibition at 0.111 µM came out at 100%.
With `COc1ccc(Cl)cc1-c1cc2nccc(N[C@@H]3C[C@H](COS(N)(=O)=O)[C@@H](O)[C@H]3O)n2n1` (relative stereo) [Compound I-020, (rac)-((1R,2R,3S,4R)-4-(2-(5-chloro-2-methoxyphenyl)pyrazolo[1,5-a]pyrimidin-7-ylamino)-2,3-dihydroxycyclopentyl)methyl rel-sulfamate], the inhibition at 0.111 µM was 100%.
Turning to `Cc1ccc(Cl)cc1-c1cc2nccc(N[C@@H]3C[C@H](COS(N)(=O)=O)[C@@H](O)[C@H]3O)n2n1` (relative stereo) [Compound I-021, (rac)-((1R,2R,3S,4R)-4-(2-(5-chloro-2-methylphenyl)pyrazolo[1,5-a]pyrimidin-7-ylamino)-2,3-dihydroxycyclopentyl)methyl rel-sulfamate], the inhibition at 0.111 µM came to 97%.
For `NS(=O)(=O)OC[C@H]1C[C@@H](Nc2ccnc3cc(-c4csc5ccccc45)nn23)[C@H](O)[C@@H]1O` (relative stereo) [Compound I-022, (rac)-((1R,2R,3S,4R)-4-(2-(benzo[b]thiophen-3-yl)pyrazolo[1,5-a]pyrimidin-7-ylamino)-2,3-dihydroxycyclopentyl)methyl rel-sulfamate], the inhibition at 0.111 µM is 100%.
Consider `CC1(C)COc2c(-c3cc4nccc(N[C@@H]5C[C@H](COS(N)(=O)=O)[C@@H](O)[C@H]5O)n4n3)cccc21` (relative stereo) [Compound I-023, (rac)-((1R,2R,3S,4R)-4-(2-(3,3-dimethyl-2,3-dihydrobenzofuran-7-yl)pyrazolo[1,5-a]pyrimidin-7-ylamino)-2,3-dihydroxycyclopentyl)methyl rel-sulfamate], for which the inhibition at 0.111 µM came to 96%.
Turning to `NS(=O)(=O)OC[C@H]1C[C@@H](Nc2ccnc3cc(-c4cc5ccccc5[nH]4)nn23)[C@H](O)[C@@H]1O` (relative stereo) [Compound I-024, (rac)-((1R,2R,3S,4R)-4-(2-(1H-indol-2-yl)pyrazolo[1,5-a]pyrimidin-7-ylamino)-2,3-dihydroxycyclopentyl)methyl rel-sulfamate], the inhibition at 0.111 µM came to 98%.
Turning to `NS(=O)(=O)OC[C@H]1C[C@@H](Nc2ccnc3cc(-c4cnc5ccccc5c4)nn23)[C@H](O)[C@@H]1O` (relative stereo) [Compound I-025, (rac)-((1R,2R,3S,4R)-2,3-dihydroxy-4-(2-(quinolin-3-yl)pyrazolo[1,5-a]pyrimidin-7-ylamino)cyclopentyl)methyl rel-sulfamate], the inhibition at 0.111 µM came to 93%.
Consider `CC1(C)COc2ccc(-c3cc4nccc(N[C@@H]5C[C@H](COS(N)(=O)=O)[C@@H](O)[C@H]5O)n4n3)cc21` (relative stereo) [Compound I-026, (rac)-((1R,2R,3S,4R)-4-(2-(3,3-dimethyl-2,3-dihydrobenzofuran-5-yl)pyrazolo[1,5-a]pyrimidin-7-ylamino)-2,3-dihydroxycyclopentyl)methyl rel-sulfamate], for which the inhibition at 0.111 µM is 100%.
In the case of `NS(=O)(=O)OC[C@H]1C[C@@H](Nc2ccnc3cc(-c4cccc5cnccc45)nn23)[C@H](O)[C@@H]1O` (relative stereo) [Compound I-027, (rac)-((1R,2R,3S,4R)-2,3-dihydroxy-4-(2-(isoquinolin-5-yl)pyrazolo[1,5-a]pyrimidin-7-ylamino)cyclopentyl)methyl rel-sulfamate], the inhibition at 0.111 µM is 100%.
Next, `NS(=O)(=O)OC[C@H]1C[C@@H](Nc2ccnc3cc(-c4cccc(Br)c4)nn23)[C@H](O)[C@@H]1O` (relative stereo) [Compound I-028, (rac)-((1R,2R,3S,4R)-4-((2-(3-Bromophenyl)pyrazolo[1,5-a]pyrimidin-7-yl)amino)-2,3-dihydroxycyclopentyl)methyl rel-sulfamate]: 99%; `NS(=O)(=O)OC[C@H]1C[C@@H](Nc2ccnc3cc(-c4cc(C(F)(F)F)ccc4F)nn23)[C@H](O)[C@@H]1O` (relative stereo) [Compound I-029, (rac)-((1R,2R,3S,4R)-4-((2-(2-Fluoro-5-(trifluoromethyl)phenyl)pyrazolo[1,5-a]pyrimidin-7-yl)amino)-2,3-dihydroxycyclopentyl)methyl rel-sulfamate]: 100%.
